Laboratory results reported in patent publication US20240398831A1, “COMPOSITIONS COMPRISING SMALL MOLECULE REGULATORS OF TUMOR IMMUNITY AND METHODS OF USING SAME” (Duke University, priority 2021, published 2024).

Tests used:
[1] = system: BPD6 tumors; experiment: BPD6 syngeneic melanoma tumor model in ovariectomized mice (tumor growth, flow cytometry); format: in vivo, mouse
Excerpt: FIGS. 18E-18G show quantification of M1 macrophages (MHCII^hi CD206^−ive), GZMB^+CD8^+ T cells, and PD1^+CD8^+ T cells in YuMM5.2 tumors from FIG. 18C (n=4). […] Vehicle+IgG (n=10, red), fulvestrant+IgG (n=15, blue), vehicle+ICB (n=15, black), and fulvestrant+ICB (n=15, brown). Black arrow indicates start of ICB treatment regimen. […] Vehicle+IgG (n=9, red), fulvestrant+IgG (n=8, blue), vehicle+ICB (n=9, black), and fulvestrant+ICB (n=10, brown). Black arrow indicates start of anti-PD1 treatment regimen. […] FIGS. 18A-18C are representative of two individual experiments. Data are expressed as mean 3 S.E.M. Significance was calculated by one-way ANOVA followed by Bonferroni's multiple correction (FIG. 18K), by Student's t test (FIG. 18L), and by log rank test (FIG. 18M) (*p<0.05, **p<0.01, and ***p<0.001).
(§1) Tumor models and cells. The mouse B16F10 and Yumm5.2 cell lines were purchased from American Type Culture Collection (ATCC, Manassas, VA). The mouse melanoma cell line BPD6 was established from iBP as described elsewhere (Zhao et al., Immunity 2018, 48, 147-160). B16F10 and BPD6 cells were maintained in Dulbecco's Modified Eagle's Medium (DMEM) supplemented with 8% fetal bovine serum (FBS), 0.1 mM non-essential amino acids (NEAA) and 1 mM sodium pyruvate. YuMM5.2 cells were maintained in DMEM/F12 media supplemented with 10% FBS. The cells were replated 3 times/week at a confluency of 1:10 and were kept in a 37° C. incubator at 5% CO2. For subcutaneous tumor models B16F10 (5×10^4 or 1×10^5), YuMM5.2 (5×10^5), and BPD6 (5×10^5) cells were injected into the right flank of the mice. For iBP mice, tumors were induced with a single intradermal dose of 4-hydroxytamoxifen in DMSO (150 μg/mouse). Tumors were measured thrice weekly using an electronic caliper. Tumor volumes were calculated by the formula V=L×(W×W)/2. For iBP mouse tumors, volumes were calculated by the formula V=L×B×H. For tumor growth rate studies mice were euthanized when the tumors reached a maximum size of 2000 mm^3.
(§2) Ovarlectomy and subcutaneous pellet Insertion. Ovariectomy was performed as previously described (Nelson et al., Science 2013, 342, 1094-1098). Eight days prior to tumor inoculation, 7 weeks old C57BL/6J or 5 weeks old (iBP) female mice were subjected to ovariectomy or sham surgery. Mice were anesthetized in an inhalation chamber (2% Isoflurane) and maintained in half the dose of isoflurane (1%) via nose cone throughout the surgical process. Prior to surgery, mice were administered a 5 mg/kg dose of carprofen subcutaneously. The area below the ribs was shaved with an electronic razor and the skin was sterilized by rubbing with betadine and alcohol (3× alternating). A horizontal incision was made through the skin above the ovary fat pad, followed by a vertical incision through the abdominal muscle wall. The ovary was externalized and removed using a cauterizing scissors (or returned if sham). Fat pad was replaced, and muscle walls were opposed and sutured (1-2 stitches). Following suturing, 1 drop of bupivacaine (0.25%) was added on top of the incision site. The skin was opposed, and a wound clip was placed on the incision site. This was repeated for the other ovary. The mouse was then removed from anesthesia and kept in a clean cage and monitored until conscious. The mice were monitored for recovery for 10 days.
Fulvestrant treatment Mice were injected with fulvestrant (Cat #HY-13636 MedChemExpress) 2 days after tumor injection at a dose of 25 mg/kg via intramuscular route. […]

[2] = system: B16F10 tumors; experiment: B16F10 syngeneic melanoma tumor model in ovariectomized mice (tumor growth, flow cytometry); format: in vivo, mouse
Description: as §1, §2
Single cell isolation from tumors. Tumors were isolated, minced on a petri dish in media (DMEM+5% FBS), and then enzymatically digested by the addition of 100 μg/mL DNase I (D5025-150KU, Sigma-Aldrich) and 1 mg/mL collagenase (Collagenase A, Cat #10103586001, Sigma-Aldrich) for 30 mins-45 mins. For iBP models, isolated tumors were sliced into large chunks and subjected to mechanical digestion in a gentleMACS Dissociator for 30 seconds twice. Following this, tumors were digested with an enzyme cocktail containing DNase I, collagenase, and hyaluronidase (100 μg/mL) (H6254, Sigma-Aldrich) for 40 mins following a second round of mechanical digestion for 30 seconds (twice). The cells were then filtered through a 40 μm strainer to produce single cell suspensions and the enzymes were diluted by addition of additional media then spun down to remove media. Red blood cells were lysed with the addition of ACK lysis buffer (Cat #A1049201. ThermoFisher Scientific) for 4 mins at room temperature. Following red blood cell lysis, cells were washed with PBS before proceeding to flow cytometry staining or magnetic bead-based isolation.
Flow cytometry staining. Single cells suspensions (10^6 cells in 50 μL) were incubated with Live/dead fixable dead cell stain in PBS for 10 mins at 4° C. Cells were spun down at 1000×g and were incubated with anti-CD16/32 (Catalog #14-0161-85, ThermoFisher Scientific) in flow buffer (10 gms BSA in 1 L PBS+sodium azide) for 15 mins. […]

[3] = system: YuMM5.2 cells; experiment: Quantitative PCR of Wnt5A-β-catenin targets in melanoma tumor cells; format: cell-based, mouse
[4] = fulvestrant 25 mg/kg, E2 supplemented mice
[5] = E2 vs placebo, ovariectomized C57BL/6J

| Molecule | intratumoral M1/M2 ratio ([1]; E2 treated mice co-treated with fulvestrant) | tumor growth ([1]; PD1 sensitive model, fulvestrant alone) | tumor growth [1, 4] | tumor growth [2, 4] | expression of WNT5A-β-catenin targets ([3]; E2 (1 nM)+fulvestrant (100 nM)) | tumor growth [1, 5] | percentage of Ly6C+/Ly6G+ MDSCs in tumors ([1]; flow cytometry, E2 vs placebo) | tumor promoting effects of E2, tumor cells co-mixed with BMDM (1:1) ([2]; BMDM from Esr1^f/f, LysMCre versus Esr1^f/f) | tumor growth [2, 5] | tumor growth ([2]; Esr1^f/f and LysMCre control mice) | tumor growth ([2]; Esr1^f/f, LysMCre mice (myeloid ERα knockout)) | infiltration of immune cells (CD45+) ([2]; flow cytometry, E2 vs placebo) | percentage of Ly6C+/Ly6G+ MDSCs in tumors ([2]; flow cytometry, E2 vs placebo) | ratio of intratumoral M1 (MHCII^hi CD206−) to M2 (MHCII^lo CD206+/hi) macrophages ([2]; flow cytometry, E2 vs placebo) | expression of WNT5A-β-catenin targets ([3]; E2 (1 nM)) |
| --- | --- | --- | --- | --- | --- | --- | --- | --- | --- | --- | --- | --- | --- | --- | --- |
| C[C@]12CC[C@@H]3c4ccc(O)cc4C[C@@H](CCCCCCCCC[S+]([O-])CCCC(F)(F)C(F)(F)F)[C@H]3[C@@H]1CC[C@@H]2O (stereo partly drawn) [fulvestrant] | increase | slows tumor growth | significantly reduced | significantly reduced | did not change | – | – | – | – | – | – | – | – | – | – |
| 17β-estradiol [E2] | – | – | – | – | – | significantly increased | no changes | significantly compromised | significantly increased | increased | not evident | not impacted by treatment | no changes | decreases | did not change |
